Source: PubChem BioAssay (NCI)
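96-well plates; 48 h exposure; 5 concentrations. Endpoints by linear interpolation between flanking doses. Not reached: highest tested concentration assigned. Here, GI50 denotes the concentration required for 50% inhibition of growth. TGI marks complete inhibition of growth.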

Assays:
Assay in all cases: inhibition of tumour cell growth, NCI panel, 48 h
MDA-MB-468 breast = test system: MDA-MB-468 breast
NCI-H226 lung = test system: NCI-H226 lung
DU-145 prostate = test system: DU-145 prostate
SNB-19 CNS = test system: SNB-19 CNS
HCT-15 colon = test system: HCT-15 colon
UACC-257 melanoma = test system: UACC-257 melanoma
IGROV1 ovarian = test system: IGROV1 ovarian
HT29 colon = test system: HT29 colon
OVCAR-4 ovarian = test system: OVCAR-4 ovarian
M14 melanoma = test system: M14 melanoma
HOP-62 NSCLC = test system: HOP-62 NSCLC
CCRF-CEM leukemia = test system: CCRF-CEM leukemia
HS 578T breast = test system: HS 578T breast
RXF 393 renal = test system: RXF 393 renal
K-562 leukemia = test system: K-562 leukemia
NCI-H23 lung = test system: NCI-H23 lung
NCI-H522 lung = test system: NCI-H522 lung
SK-MEL-28 melanoma = test system: SK-MEL-28 melanoma
OVCAR-3 ovarian = test system: OVCAR-3 ovarian
SW-620 colon = test system: SW-620 colon
RPMI-8226 leukemia = test system: RPMI-8226 leukemia
COLO 205 colon = test system: COLO 205 colon
SF-295 CNS = test system: SF-295 CNS
UO-31 renal = test system: UO-31 renal
SNB-75 CNS = test system: SNB-75 CNS
SK-MEL-5 melanoma = test system: SK-MEL-5 melanoma
SR leukemia = test system: SR leukemia
CAKI-1 renal = test system: CAKI-1 renal
NCI-H460 lung = test system: NCI-H460 lung

For `Cc1cc(C2(c3cc(C)c(OCC(O)CNc4c(C)n(C)n(-c5ccccc5)c4=O)cc3C(C)C)OC(=O)c3ccccc32)c(C(C)C)cc1OCC(O)CNc1c(C)n(C)n(-c2ccccc2)c1=O` (stereo not drawn), the GI50 (MDA-MB-468 breast) was 12.1 µM, the TGI (MDA-MB-468 breast) was 44.5 µM and the GI50 (NCI-H226 lung) was 15.7 µM. For the same compound, the TGI (NCI-H226 lung) was > 100 µM, the GI50 (DU-145 prostate) was 34 µM and the TGI (DU-145 prostate) was > 100 µM. The GI50 (SNB-19 CNS) was 23.5 µM, the TGI (SNB-19 CNS) was > 100 µM and the GI50 (HCT-15 colon) was 17.1 µM. The TGI (HCT-15 colon) was 67.9 µM, the GI50 (UACC-257 melanoma) was 24.1 µM and the TGI (UACC-257 melanoma) was > 100 µM. For the same compound, the GI50 (IGROV1 ovarian) was 29 µM, the TGI (IGROV1 ovarian) was > 100 µM and the GI50 (HT29 colon) was 26.7 µM. For the same compound, the TGI (HT29 colon) was > 100 µM, the GI50 (OVCAR-4 ovarian) was 27.2 µM and the TGI (OVCAR-4 ovarian) was > 100 µM. The GI50 (M14 melanoma) was 17.8 µM, the TGI (M14 melanoma) was 44.7 µM and the GI50 (HOP-62 NSCLC) was 36.5 µM. For the same compound, the TGI (HOP-62 NSCLC) was > 100 µM, the GI50 (CCRF-CEM leukemia) was 15.5 µM and the TGI (CCRF-CEM leukemia) was > 100 µM. For the same compound, the GI50 (HS 578T breast) was 14.2 µM, the TGI (HS 578T breast) was > 100 µM and the GI50 (RXF 393 renal) was 5.2 µM. The TGI (RXF 393 renal) was 38 µM, the GI50 (K-562 leukemia) was 14.4 µM and the TGI (K-562 leukemia) was > 100 µM. For the same compound, the GI50 (NCI-H23 lung) was 23.5 µM, the TGI (NCI-H23 lung) was > 100 µM and the GI50 (NCI-H522 lung) was 26.9 µM. It also gave a TGI (NCI-H522 lung) of 94.1 µM, a GI50 (SK-MEL-28 melanoma) of 23.2 µM and a TGI (SK-MEL-28 melanoma) of 92.9 µM. For the same compound, the GI50 (OVCAR-3 ovarian) was 19 µM, the TGI (OVCAR-3 ovarian) was 92.6 µM and the GI50 (SW-620 colon) was 28.2 µM. The TGI (SW-620 colon) was > 100 µM, the GI50 (RPMI-8226 leukemia) was 13.9 µM and the TGI (RPMI-8226 leukemia) was 84.6 µM. The GI50 (COLO 205 colon) was 17.9 µM, the TGI (COLO 205 colon) was 41.8 µM and the GI50 (SF-295 CNS) was 11.1 µM. For the same compound, the TGI (SF-295 CNS) was 32 µM, the GI50 (UO-31 renal) was 19.9 µM and the TGI (UO-31 renal) was > 100 µM. For the same compound, the GI50 (SNB-75 CNS) was 20.3 µM, the TGI (SNB-75 CNS) was > 100 µM and the GI50 (SK-MEL-5 melanoma) was 13.2 µM. For the same compound, the TGI (SK-MEL-5 melanoma) was 26.7 µM, the GI50 (SR leukemia) was 20.9 µM and the TGI (SR leukemia) was > 100 µM. For the same compound, the GI50 (CAKI-1 renal) was 4.11 µM, the TGI (CAKI-1 renal) was > 100 µM and the GI50 (NCI-H460 lung) was 15.6 µM. The TGI (NCI-H460 lung) was 43.4 µM.
